Reference: patent publication US20150297652A1, “COMPOSITIONS AND METHODS FOR THEIR DERMATOLOGICAL USE” (VITA NATURALE, LLC, priority 2012, published 2015)

Legend:
[1] = system: chronic scalp dermatitis; assay: Topical treatment of chronic scalp dermatitis (Subject 3); assay type: in vivo, human; details: past treatment of the scalp with clobetasol 0.05% solution
Protocol: (§1) A topical composition of the present invention, referred to herein as Composition 1, comprising as active ingredients Albizzia lebbeck (1%), schisandra chinensis (0.1%), and ophiopogon japonicus (2%), as well as petrolatum, water, glycerin, sodium hyaluronate, dimethicone, glyceryl stearate, acrylates, disodium EDTA, capric triglyceride, propanediol, phenoxyethanol, and triethanolamine, was prepared and administered to subjects as follows:
Subject 3 suffered from chronic scalp dermatitis characterized by persistent severe itching and scaling of the scalp. […] Untreated areas were persistently itchy and scaly.

[2] = system: chronic eyelid eczema; assay: Topical treatment of chronic eyelid eczema (Subject 1); assay type: in vivo, human; details: previously treated with emollients and hydrocortisone
Protocol: as §1, with “follows: Subject 1 suffered from chronic eyelid eczema characterized by persistent severe itching and scaling of the eyelids.” for “follows:”

SMILES: C[C@H]1C[C@H]2[C@@H]3CCC4=CC(=O)C=C[C@]4(C)[C@@]3(F)[C@@H](O)C[C@]2(C)[C@@]1(O)C(=O)CCl [clobetasol]
- adverse side effects [1]: adverse side effects including acne and skin atrophy

SMILES: C[C@]12CCC(=O)C=C1CC[C@@H]1[C@@H]2[C@@H](O)C[C@@]2(C)[C@H]1CC[C@]2(O)C(=O)CO [hydrocortisone]
- improvement with previous treatment [2]: minimal improvement
